Data: patent publication US8048873B2, “Synergistic pharmaceutical combination for the prevention or treatment of diabetes” (N-Gene Research Laboratories, Inc., priority 2001, dated 2011)

Tested on: New Zealand white rabbits
Assay: Hyperinsulinaemic euglycaemic glucose clamp studies (insulin sensitivity by glucose infusion rate at steady state)
Format: in vivo, rabbit
Settings: measured on 6th day
Procedure: Adult male New Zealand white rabbits weighing 3-3.2 kg, housed in an animal room (12-hour light/dark periods a day, temperature of 22-25° C., relative humidity of 50-70%) with one animal per pen, fed commercial laboratory chow and tap water ad libitum, were used throughout. The animals underwent surgery after a two-week adaptation period.
Surgery was performed under aseptic conditions. The rabbits were anaesthetized with an intravenous bolus of 10 mg/kg diazepam (Sigma, St. Louis, Mo., USA) and 5 mg/kg ketamine (EGIS Pharmaceuticals Ltd., Budapest, Hungary). […] Polyethylene catheters were inserted into two major branches of the jugular vein and the left carotid artery. The catheters were exteriorised through the back of the neck. These lines were kept patent by filling with sodium heparin solution (100 IU/ml).
Hyperinsulinaemic Euglycaemic Glucose Clamp Studies
Blood samples (0.3 ml) were taken from the arterial cannula for blood glucose concentration at 10 min intervals. […] When blood glucose had stabilized for at least 30 min, we defined this condition as steady state. In the steady state, additional blood samples (0.5 ml) were taken for plasma insulin determination at 10-min intervals. The glucose infusion rate (mg/kg/min) during steady state was used to characterize insulin sensitivity [DeFronzo R. A. et al., Am. […] The test compound(s) was/were administered to healthy and hypercholesterolaemic animals, respectively, perorally, in a single dose, daily, for five days, and the glucose infusion rates determined on the 6th day were averaged within each test group consisting of 6 animals. One group of the healthy and one of the hypercholesterolaemic animals was used as the control.
It is favourable that a higher amount of glucose should be needed at the given constant blood glucose level which indicates the enhanced effect of insulin.

SMILES | Insulin sensitivity as characterized by the glucose infusion rate during steady state (Table 2, HC (hypercholesterolaemic) animals, troglitazone 75 mg/kg daily dose p.o. for five days) [mg/kg/min] | Insulin sensitivity as characterized by the glucose infusion rate during steady state (Table 2, normal (healthy) animals, troglitazone 75 mg/kg daily dose p.o. for five days) [mg/kg/min] | Insulin sensitivity as characterized by the glucose infusion rate during steady state (Table 1, HC (hypercholesterolaemic) animals, metformin 100 mg/kg daily dose p.o. for five days) [mg/kg/min] | Insulin sensitivity as characterized by the glucose infusion rate during steady state (Table 1, normal (healthy) animals, metformin 100 mg/kg daily dose p.o. for five days) [mg/kg/min]
Cc1c(C)c2c(c(C)c1O)CCC(C)(COc1ccc(CC3SC(=O)NC3=O)cc1)O2 (racemic) [Troglitazone, (±)-5-[[4-[(3,4-dihydro-6-hydroxy-2,5,7,8-tetramethyl-2H-1-benzopyran-2-yl)methoxy]-phenyl]methyl]-2,4-thiazolidinedione] | 14.1 ± 1.33 | 14.3 ± 0.08 | – | –
CN(C)C(=N)N=C(N)N [Metformin, N,N-dimethylimidocarbonimidic diamide] | – | – | 11.7 ± 0.87 | 15.8 ± 0.83
